From patent publication US7214689B2, “Isoquinoline compounds” (Les Laboratoires Servier, priority 2003, dated 2007)
pKi: −log10 of the molar value. Counter-ions that a name gives are not always drawn.

Key:
MT1 receptor = MT1 receptor (Homo sapiens, UniProt P48039); experiment: Binding to melatonin receptor MT1 (2-[125I]-iodomelatonin); conditions: 2-[125I]-iodomelatonin radioligand, triplicate
Method: (§1) Study of Binding to Melatonin Receptors MT1 and MT2
(§2) The MT1 or MT2 receptor binding experiments are carried out using 2-[^125I]-iodomelatonin as reference radioligand. The radioactivity retained is determined using a liquid scintillation counter.
(§3) Competitive binding experiments are then carried out in triplicate using the various test compounds. A range of different concentrations is tested for each compound. The results enable the binding affinities (Ki) of the compounds tested to be determined.

MT2 receptor = biological target: T1, MT2 receptor (Homo sapiens, UniProt P49286); experiment: Binding to melatonin receptor MT2 (2-[125I]-iodomelatonin); conditions: 2-[125I]-iodomelatonin radioligand, triplicate
T1 sequence (P49286 1-362): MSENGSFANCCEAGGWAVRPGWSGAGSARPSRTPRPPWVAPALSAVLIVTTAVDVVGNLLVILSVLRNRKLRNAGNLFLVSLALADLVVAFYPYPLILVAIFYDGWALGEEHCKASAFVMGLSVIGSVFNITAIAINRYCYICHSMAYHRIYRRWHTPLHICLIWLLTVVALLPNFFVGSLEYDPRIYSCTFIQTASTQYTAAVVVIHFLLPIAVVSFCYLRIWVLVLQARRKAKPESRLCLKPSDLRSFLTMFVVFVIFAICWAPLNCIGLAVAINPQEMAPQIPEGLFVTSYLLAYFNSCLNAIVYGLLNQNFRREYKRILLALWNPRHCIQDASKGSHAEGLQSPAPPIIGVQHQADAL
Method: as §1, §2, §3

Forced swimming test = type: in vivo; conditions: 40 minutes before the test
Method: The compounds of the invention are tested in a behavioural model, the forced swimming test.
The apparatus is a Plexiglas cylinder filled with water. The animals are tested individually for a session of 6 minutes. At the beginning of each test, the animal is placed in the centre of the cylinder. The period of immobility is recorded. Each animal is judged to be immobile when it ceases to struggle and remains immobile on the surface of the water only making movements that allow it to keep its head out of the water.
In particular, the compound of Example 9, administered at 2.5 mg/kg per os, causes the duration of immobility to be reduced from 102 seconds (control) to 57 seconds. The compound of Example 3, administered at 25 mg/kg per os, causes the duration of immobilisation to be reduced from 129 seconds (control) to 60 seconds.

MT1 receptor, sequence (P48039 whole entry): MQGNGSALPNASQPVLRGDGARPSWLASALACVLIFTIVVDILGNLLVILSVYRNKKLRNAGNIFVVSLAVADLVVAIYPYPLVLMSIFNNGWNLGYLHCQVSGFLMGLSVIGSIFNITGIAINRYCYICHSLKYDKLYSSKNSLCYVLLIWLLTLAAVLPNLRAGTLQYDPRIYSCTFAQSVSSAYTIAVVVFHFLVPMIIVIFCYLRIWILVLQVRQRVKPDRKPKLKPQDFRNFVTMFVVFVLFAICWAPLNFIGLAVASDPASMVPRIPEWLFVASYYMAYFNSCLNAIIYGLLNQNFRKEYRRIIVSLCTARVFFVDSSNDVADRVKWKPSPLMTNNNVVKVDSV

## CNC(=O)CCCc1cncc2ccc(OC)cc12 [Example 3, 4-(6-methoxy-4-isoquinolinyl)-N-methylbutanamide]
MT1 receptor
  pKi: 8.42
MT2 receptor
  pKi: 8.59
Forced swimming test; 25 mg/kg per os, control 129 seconds
  duration of immobilisation: 60 s

## COc1ccc2cncc(CCNC(C)=O)c2c1.Cl [Example 9, N-[2-(6-methoxy-4-isoquinolinyl)ethyl]acetamide hydrochloride]
MT1 receptor
  pKi: 8.04
MT2 receptor
  pKi: 8.67
Forced swimming test; 2.5 mg/kg per os, control 102 seconds
  duration of immobility: 57 s

## CCC(=O)NCCc1cncc2ccc(OC)cc12 [Example 10, N-[2-(6methoxy-4-isoquinolinyl)ethyl]propanamide hydrochloride]
MT1 receptor
  pKi: 8.37
MT2 receptor
  pKi: 8.94
